Assay: xn = mol fraction of the nth substance listed
Details: 100 kPa

CCCn1cc[n+](C)c1.[Br-] + O
viscosity [mPa·s]
Details | 303.15 K | 313.15 K | 323.15 K | 333.15 K | 343.15 K
x1 = 0.0497 | 1.67 | 1.31 | – | 0.899 | 0.767
x1 = 0.0992 | 3.1 | 2.39 | 1.9 | 1.55 | 1.29
x1 = 0.1984 | 7.88 | 5.81 | 4.46 | 3.53 | 2.81
x1 = 0.4005 | – | 19.6 | 13.9 | 10.2 | 7.82
x1 = 0.5756 | 87.4 | 52.6 | 34 | 23.2 | 16.7

CC[n+]1ccn(C)c1.[Br-] + O
viscosity [mPa·s]
Details | x1 = 0.049 | x1 = 0.0997 | x1 = 0.1466 | x1 = 0.1978 | x1 = 0.2501 | x1 = 0.3881 | x1 = 0.543
303.15 K | – | 2.42 | 3.55 | – | 6.71 | 13 | 28.2
313.15 K | 1.14 | 1.9 | 2.72 | 4.1 | 5.07 | 9.59 | 19.4
323.15 K | 0.944 | 1.57 | 2.21 | 3.27 | 3.99 | 7.31 | 14.3
333.15 K | – | 1.3 | 1.85 | 2.66 | 3.21 | 5.76 | 11.1
343.15 K | 0.688 | 1.12 | 1.53 | 2.2 | 2.65 | 4.59 | 8.6

CCCC[n+]1ccn(C)c1.[Br-] + O
viscosity [mPa·s]
Details | x1 = 0.05 | x1 = 0.0992 | x1 = 0.1481 | x1 = 0.1979 | x1 = 0.2517 | x1 = 0.3882
303.15 K | – | – | 5.93 | 8.78 | 12 | –
313.15 K | 1.56 | 2.58 | 4.3 | 6.08 | 8.65 | –
323.15 K | 1.27 | 2.06 | 3.43 | 4.79 | 6.49 | –
333.15 K | – | – | 2.71 | – | – | –
343.15 K | 0.888 | 1.37 | 2.2 | 2.91 | 3.89 | 7.98

O + CCCn1cc[n+](C)c1.[Br-]
x2 = 0
Details | viscosity [mPa·s]
303.15 K | 0.834
313.15 K | 0.684
323.15 K | 0.58

O + CC[n+]1ccn(C)c1.[Br-]
x2 = 0
Details | viscosity [mPa·s]
313.15 K | 0.684
333.15 K | 0.492

O + CCCC[n+]1ccn(C)c1.[Br-]
x2 = 0
Details | viscosity [mPa·s]
313.15 K | 0.684
323.15 K | 0.58
333.15 K | 0.492
343.15 K | 0.429
